Results: paper PMC7320011, “Rationally designed ruthenium complexes for 1- and 2-photon photodynamic therapy” (Nature Communications, 2020)

Test system: doxorubicin-selected P-gp-overexpressing human colon cancer tumor (SW620/AD300)
Assay: In vivo PDT on tumor-bearing nude mice
Set-up: species or system mouse
Conditions: chloride salt, 2 mg kg^−1 i.v.
Description: Six weeks old nu/nu female mice were purchased from Charles River. For the tumor xenograft, 6 × 10^6 SW620/AD300 cells were subcutaneously (s.c.) injected with a 150 μL Matrigel and saline (1:1, v/v) suspension into the mice. After a week, the tumor volumes of the mice reached ~80 mm^3. All experiments were conducted in compliance with the ethical regulations for animal testing and received approval of the experimental animal managing committee of Sun Yat Sen University.
30 SW620/AD300 nude tumor-bearing nude mice were randomly separated into six groups, resulting in five mice for each group. After been anaesthetized, the mice was fixed in a warm three-axes holder. Before irradiation, the tumor site was disinfected with ethanol. The tumor was exposed to 1P or 2P light. Following the irradiation, the operative area was disinfection by iodophor.
Group 1: injected 7 (2 mg kg^−1, 50 μL) intravenously and irradiate under 800 nm laser (50 mW, 1 kHz, pulse width 35 fs, 5 s mm^−1) 1 h after injection; […]
The mice were anesthetized by injection of a 4% chloral hydrate aqueous solution (0.2 mL, 20 g^−1) before the treatment. The tumor volume and body weight were measured and recorded every 2 days. Tumor volume was calculated by the following formula:6 Volume=Length×Width^2/2.

COc1ccc(/C=C/c2ccnc(-c3cc(/C=C/c4ccc(OC)cc4)ccn3)c2)cc1.F[P-](F)(F)(F)(F)F.F[P-](F)(F)(F)(F)F.[Ru+2].c1ccc(-c2ccccn2)nc1.c1ccc(-c2ccccn2)nc1 [compound 7, [Ru(2,2′-bipyridine)2((E,E′)-4,4′-Bis[p-methoxystyryl]-2,2′-bipyridine)][PF6]2]
tumor growth after one PDT treatment (1P (500 nm, 36 J cm^−2) or 2P (800 nm, 50 mW) irradiation 1 h after injection, 80 mm^3 tumor): drastically shrank until they were nearly eradicated
tumor growth without irradiation (dark): kept growing
